# Legend:
# Test in all cases: Test D controlled growth environment herbicide test, pre- and postemergence
# Format in all cases: in vivo
# [1] = test system: Russian thistle (Salsola kali)
# Method in brief: (§1)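 Rating is visual, 0–100 scale (100 = complete control), made against untreated plants 14–21 d after treatment in controlled growth conditions. Postemergence sprays went onto 1- to 4-leaf plants in peat medium; preemergence sprays onto silt loam after sowing; formulation included a surfactant.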
# [2] = test system: blackgrass (Alopecurus myosuroides)
# Method in brief: as §1
# [3] = test system: bromegrass, downy (downy bromegrass, Bromus tectorum)
# Method in brief: as §1
# [4] = test system: chamomile (scentless chamomile, Matricaria inodora)
# Method in brief: as §1
# [5] = test system: chickweed (common chickweed, Stellaria media)
# Method in brief: as §1
# [6] = test system: deadnettle (henbit deadnettle, Lamium amplexicaule)
# Method in brief: as §1
# [7] = test system: field violet (Viola arvensis)
# Method in brief: as §1
# kochia (Kochia scoparia) = test system: kochia (Kochia scoparia)
# Method in brief: as §1
# [8] = test system: lambsquarters (Chenopodium album)
# Method in brief: as §1
# [9] = test system: radish, wild (wild radish, Raphanus raphanistrum)
# Method in brief: as §1
# [10] = test system: ryegrass, Italian (Italian ryegrass, Lolium multiflorum)
# Method in brief: as §1
# [11] = test system: speedwell (bird's-eye speedwell, Veronica persica)
# Method in brief: as §1
# [12] = test system: wheat, winter (winter wheat, Triticum aestivum)
# Method in brief: as §1
# [13] = test system: windgrass (Apera spica-venti)
# Method in brief: as §1
# [14] = Postemergence, 31 g ai/ha, scale 0 to 100 (0 no effect, 100 complete control)
# [15] = Postemergence, 125 g ai/ha, visual rating on scale 0 (no effect) to 100 (complete control), 14 to 21 d
# [16] = Postemergence, 250 g ai/ha, scale 0 to 100 (0 no effect, 100 complete control)
# [17] = Preemergence, 62 g ai/ha, scale 0 to 100 (0 no effect, 100 complete control)
# [18] = Preemergence, 125 g ai/ha, scale 0 to 100 (0 no effect, 100 complete control)
# [19] = Preemergence, 250 g ai/ha, scale 0 to 100, 0 no effect, 100 complete control
# [20] = postemergence, 62 g ai/ha, scale 0 to 100, 0 no effect, 100 complete control
structure (smiles),measurement,setting,value
Cc1ccc2sc(C)c(-c3c(OC(=O)OC(C)C)c(C)nn(C)c3=O)c2c1 [Compound 66],Russian Thistle plant response rating,[1]; [14],75
same,"Plant response rating, Russian Thistle",[1]; [15],75
same,"Plant response rating, Russian Thistle",[1]; [16],80
same,"Plant response rating (scale of 0 to 100), Russian Thistle","[1]; Preemergence, 31 g ai/ha",0
same,"Plant response rating, Russian Thistle",[1]; [17],20
same,"Plant response rating, Russian Thistle",[1]; [18],60
same,"Plant response rating, Russian Thistle",[1]; [19],90
same,"Plant response rating, Russian Thistle",[1]; [20],80
same,Blackgrass plant response rating,[2]; [14],65
same,"Plant response rating, Blackgrass",[2]; [15],75
same,"Plant response rating, Blackgrass",[2]; [16],75
same,"Plant response rating (scale of 0 to 100), Blackgrass","[2]; Preemergence, 31 g ai/ha",25
same,"Plant response rating, Blackgrass",[2]; [17],70
same,"Plant response rating, Blackgrass",[2]; [18],75
same,"Plant response rating, Blackgrass",[2]; [19],80
same,"Plant response rating, Blackgrass",[2]; [20],70
same,"Bromegrass, Downy plant response rating",[3]; [14],50
same,"Plant response rating, Bromegrass, Downy",[3]; [15],65
same,"Plant response rating, Bromegrass, Downy",[3]; [16],70
same,"Plant response rating (scale of 0 to 100), Bromegrass, Downy","[3]; Preemergence, 31 g ai/ha",15
same,"Plant response rating, Bromegrass, Downy",[3]; [17],60
same,"Plant response rating, Bromegrass, Downy",[3]; [18],80
same,"Plant response rating, Bromegrass, Downy",[3]; [19],85
same,"Plant response rating, Bromegrass, Downy",[3]; [20],60
same,Chamomile plant response rating,[4]; [14],85
same,"Plant response rating, Chamomile",[4]; [15],100
same,"Plant response rating, Chamomile",[4]; [16],100
same,"Plant response rating (scale of 0 to 100), Chamomile","[4]; Preemergence, 31 g ai/ha",90
same,"Plant response rating, Chamomile",[4]; [17],100
same,"Plant response rating, Chamomile",[4]; [18],100
same,"Plant response rating, Chamomile",[4]; [19],100
same,"Plant response rating, Chamomile",[4]; [20],90
same,Chickweed plant response rating,[5]; [14],75
same,"Plant response rating, Chickweed",[5]; [15],100
same,"Plant response rating, Chickweed",[5]; [16],100
same,"Plant response rating (scale of 0 to 100), Chickweed","[5]; Preemergence, 31 g ai/ha",90
same,"Plant response rating, Chickweed",[5]; [17],100
same,"Plant response rating, Chickweed",[5]; [18],100
same,"Plant response rating, Chickweed",[5]; [19],100
same,"Plant response rating, Chickweed",[5]; [20],85
same,Deadnettle plant response rating,[6]; [14],15
same,"Plant response rating, Deadnettle",[6]; [15],35
same,"Plant response rating, Deadnettle",[6]; [16],40
same,"Plant response rating (scale of 0 to 100), Deadnettle","[6]; Preemergence, 31 g ai/ha",15
same,"Plant response rating, Deadnettle",[6]; [17],40
same,"Plant response rating, Deadnettle",[6]; [18],55
same,"Plant response rating, Deadnettle",[6]; [19],55
same,"Plant response rating, Deadnettle",[6]; [20],15
same,Field Violet plant response rating,[7]; [14],85
same,"Plant response rating, Field Violet",[7]; [15],95
same,"Plant response rating, Field Violet",[7]; [16],95
same,"Plant response rating (scale of 0 to 100), Field Violet","[7]; Preemergence, 31 g ai/ha",60
same,"Plant response rating, Field Violet",[7]; [17],85
same,"Plant response rating, Field Violet",[7]; [18],95
same,"Plant response rating, Field Violet",[7]; [19],98
same,"Plant response rating, Field Violet",[7]; [20],95
same,Kochia plant response rating,kochia (Kochia scoparia); [14],85
same,"Plant response rating, Kochia",kochia (Kochia scoparia); [15],100
same,"Plant response rating, Kochia",kochia (Kochia scoparia); [16],100
same,"Plant response rating (scale of 0 to 100), Kochia","kochia (Kochia scoparia); Preemergence, 31 g ai/ha",0
same,"Plant response rating, Kochia",kochia (Kochia scoparia); [17],15
same,"Plant response rating, Kochia",kochia (Kochia scoparia); [18],75
same,"Plant response rating, Kochia",kochia (Kochia scoparia); [19],85
same,"Plant response rating, Kochia",kochia (Kochia scoparia); [20],95
same,Lambsquarters plant response rating,[8]; [14],95
same,"Plant response rating, Lambsquarters",[8]; [15],100
same,"Plant response rating, Lambsquarters",[8]; [16],100
same,"Plant response rating (scale of 0 to 100), Lambsquarters","[8]; Preemergence, 31 g ai/ha",55
same,"Plant response rating, Lambsquarters",[8]; [17],100
same,"Plant response rating, Lambsquarters",[8]; [18],100
same,"Plant response rating, Lambsquarters",[8]; [19],100
same,"Plant response rating, Lambsquarters",[8]; [20],95
same,"Radish, Wild plant response rating",[9]; [14],5
same,"Plant response rating, Radish, Wild",[9]; [15],30
same,"Plant response rating, Radish, Wild",[9]; [16],45
same,"Plant response rating (scale of 0 to 100), Radish, Wild","[9]; Preemergence, 31 g ai/ha",30
same,"Plant response rating, Radish, Wild",[9]; [17],70
same,"Plant response rating, Radish, Wild",[9]; [18],75
same,"Plant response rating, Radish, Wild",[9]; [19],70
same,"Plant response rating, Radish, Wild",[9]; [20],25
same,"Ryegrass, Italian plant response rating",[10]; [14],85
same,"Plant response rating, Ryegrass, Italian",[10]; [15],95
same,"Plant response rating, Ryegrass, Italian",[10]; [16],98
same,"Plant response rating (scale of 0 to 100), Ryegrass, Italian","[10]; Preemergence, 31 g ai/ha",80
same,"Plant response rating, Ryegrass, Italian",[10]; [17],85
same,"Plant response rating, Ryegrass, Italian",[10]; [18],90
same,"Plant response rating, Ryegrass, Italian",[10]; [19],95
same,"Plant response rating, Ryegrass, Italian",[10]; [20],95
same,Speedwell plant response rating,[11]; [14],55
same,"Plant response rating, Speedwell",[11]; [15],70
same,"Plant response rating, Speedwell",[11]; [16],75
same,"Plant response rating (scale of 0 to 100), Speedwell","[11]; Preemergence, 31 g ai/ha",75
same,"Plant response rating, Speedwell",[11]; [17],100
same,"Plant response rating, Speedwell",[11]; [18],100
same,"Plant response rating, Speedwell",[11]; [19],100
same,"Plant response rating, Speedwell",[11]; [20],70
same,"Wheat, Winter plant response rating",[12]; [14],0
same,"Plant response rating, Wheat, Winter",[12]; [15],0
same,"Plant response rating, Wheat, Winter",[12]; [16],0
same,"Plant response rating (scale of 0 to 100), Wheat, Winter","[12]; Preemergence, 31 g ai/ha",0
same,"Plant response rating, Wheat, Winter",[12]; [17],0
same,"Plant response rating, Wheat, Winter",[12]; [18],0
same,"Plant response rating, Wheat, Winter",[12]; [19],0
same,"Plant response rating, Wheat, Winter",[12]; [20],0
same,Windgrass plant response rating,[13]; [14],75
same,"Plant response rating, Windgrass",[13]; [15],85
same,"Plant response rating, Windgrass",[13]; [16],100
same,"Plant response rating (scale of 0 to 100), Windgrass","[13]; Preemergence, 31 g ai/ha",70
same,"Plant response rating, Windgrass",[13]; [17],75
same,"Plant response rating, Windgrass",[13]; [18],85
same,"Plant response rating, Windgrass",[13]; [19],85
same,"Plant response rating, Windgrass",[13]; [20],80

# — patent publication US10597388B2, “Pyridazinone herbicides” (FMC CORPORATION, priority 2014, dated 2020)
